# From ChEMBL document CHEMBL3272295, “Drugs derived from cannabinoids. 5. delta6a,10a-Tetrahydrocannabinol and heterocyclic analogs containing aromatic side chains” (J Med Chem, 1976)
# The source made the active and inactive calls. The calls are words filed in the database; no cut-off is given here.
# Assays:
# Rattus norvegicus [1] = organism: Rattus norvegicus; assay: animal or person; format: functional; settings: Charles River, route oral
# Description: Antidiarrheal activity in Charles River rat assessed as inhibition of castor oil-induced diarrhea by measuring protected animals at 0.5 mg/kg, po administered 1 hr prior to castor oil challenge measured after 1 hr relative to vehicle-treated control
# Mus musculus [2] = assay: Analgesic activity in po dosed mouse assessed as inhibition of acetic acid-induced writhing administered 30 mins prior to acetic acid challenge measured after 5 mins for 20 mins; format: functional
# Rattus norvegicus [3] = assay: Analgesic activity in po dosed Sprague-Dawley rat after 15 to 90 mins by tail flick test; format: functional
# Rattus norvegicus [4] = assay: Antianxiety activity in Long-Evans rat assessed as reduction in motor activity at 10 mg/kg, po after 2 hrs relative to vehicle-treated control; format: functional; design: scale not given: the % may be the effect or the level left
# Rattus norvegicus [5] = assay: Antianxiety activity in Long-Evans rat assessed as reduction in motor activity at 100 mg/kg, po after 2 hrs relative to vehicle-treated control; format: functional; design: scale not given: the % may be the effect or the level left
# Rattus norvegicus [6] = assay: Antiulcer activity in albino Sprague-Dawley rat shay ulcer model assessed as ulcer index scores at 40 mg/kg administered intraduodenally post pyloric ligation measured after 18.5 hrs relative to vehicle-treated control; format: functional; settings: route intraduodenal
# Rattus norvegicus [7] = assay: Antiulcer activity in albino Sprague-Dawley rat shay ulcer model assessed as ulcer index scores at 50 mg/kg administered intraduodenally post pyloric ligation measured after 18.5 hrs relative to vehicle-treated control; format: functional; settings: route intraduodenal
# Rattus norvegicus [8] = assay: Antidiarrheal activity in Charles River rat assessed as inhibition of castor oil-induced diarrhea by measuring protected animals at 0.25 mg/kg, po administered 1 hr prior to castor oil challenge measured after 1 hr relative to vehicle-treated control; format: functional
# Rattus norvegicus [9] = assay: Antisecretory activity in Sprague-Dawley rat assessed as decrease in acid output at 50 mg/kg, po administered 30 mins prior to pylorus ligation measured after 4 hrs relative to control; format: functional; design: scale not given: the % may be the effect or the level left
# Rattus norvegicus [10] = assay: Antisecretory activity in Sprague-Dawley rat assessed as decrease in pepsin output at 50 mg/kg, po administered 30 mins prior to pylorus ligation measured after 4 hrs relative to control; format: functional; design: scale not given: the % may be the effect or the level left
# Rattus norvegicus [11] = organism: Rattus norvegicus; assay: animal or person; format: functional; settings: Charles River, route oral; remark: listed apart in the source
# Description: Antidiarrheal activity in Charles River rat assessed as inhibition of castor oil-induced diarrhea by measuring protected animals at 1 mg/kg, po administered 1 hr prior to castor oil challenge measured after 1 hr relative to vehicle-treated control
# Rattus norvegicus [12] = assay: Antiulcer activity in albino Sprague-Dawley rat stress ulcer model assessed as prevention of stress-induced gastric lesions by measuring ulcer index score at 10 mg/kg, po administered 30 mins prior to stress measured after 4 hrs; format: functional, Stomach
# Rattus norvegicus [13] = assay: Antiulcer activity in albino Sprague-Dawley rat reserpine ulcer model assessed as prevention of reserpine-induced gastric lesions by measuring ulcer index scores at 10 mg/kg, po administered 30 mins prior to reserpine challenge measured after 6 hrs; format: functional; settings: Stomach
# Rattus norvegicus [14] = assay: Antiulcer activity in albino Sprague-Dawley rat shay ulcer model assessed as ulcer index scores at 20 mg/kg administered intraduodenally post pyloric ligation measured after 18.5 hrs relative to vehicle-treated control; format: functional; settings: route intraduodenal
# [15] = Acute toxicity in po dosed mouse; format: organism-based; settings: in vivo
# Rattus norvegicus [16] = assay: Antiulcer activity in albino Sprague-Dawley rat stress ulcer model assessed as prevention of stress-induced gastric lesions by measuring ulcer index score at 40 mg/kg, po administered 30 mins prior to stress measured after 4 hrs; format: functional, Stomach
# Rattus norvegicus [17] = assay: Antiulcer activity in albino Sprague-Dawley rat reserpine ulcer model assessed as prevention of reserpine-induced gastric lesions by measuring ulcer index scores at 50 mg/kg, po administered 30 mins prior to reserpine challenge measured after 6 hrs; format: functional, Stomach
# Rattus norvegicus [18] = assay: Antipsychotic activity in rat assessed as reduction of methamphetamine-induced hyperactivity at 10 mg/kg, po administered prior to methamphetamine challenge relative to vehicle-treated control; format: functional; design: scale not given: the % may be the effect or the level left
# Mus musculus [19] = assay: Antidepressant activity in po dosed mouse assessed as potentiation of DOPA-induced effect administered 4 hrs prior to DOPA challenge; format: functional; settings: read-out: MED
# Rattus norvegicus [20] = assay: Antihypertensive activity in spontaneously hypertensive rat model assessed as reduction in blood pressure at 10 mg/kg, po after 3 hrs; format: functional; design: scale not given: the % may be the effect or the level left
# Rattus norvegicus [21] = assay: Antihypertensive activity in spontaneously hypertensive rat model assessed as reduction in blood pressure at 10 mg/kg, po after 24 hrs; format: functional; design: scale not given: the % may be the effect or the level left
# Rattus norvegicus [22] = assay: Antihypertensive activity in spontaneously hypertensive rat model assessed as reduction in blood pressure at 3 mg/kg, po after 3 hrs; format: functional; design: scale not given: the % may be the effect or the level left
# Rattus norvegicus [23] = assay: Antihypertensive activity in spontaneously hypertensive rat model assessed as reduction in blood pressure at 3 mg/kg, po after 24 hrs; format: functional; design: scale not given: the % may be the effect or the level left
# Felis catus [24] = assay: Hypnotic activity in cat assessed as increase in total sleep time at 1 mg/kg administered orally through diet measured for 12 hrs by EEG analysis; format: functional; settings: route oral
# Felis catus [25] = assay: Hypnotic activity in cat assessed as increase in total sleep time at 0.5 mg/kg administered orally through diet measured for 12 hrs by EEG analysis; format: functional; settings: route oral
# Felis catus [26] = assay: Hypnotic activity in cat assessed as decrease in total sleep time at 0.025 mg/kg administered orally through diet measured for 12 hrs by EEG analysis; format: functional; settings: route oral
# Felis catus [27] = assay: Hypnotic activity in cat assessed as increase in total sleep time at 0.1 mg/kg administered orally through diet measured for 12 hrs by EEG analysis; format: functional; settings: route oral
# Felis catus [28] = assay: Hypnotic activity in cat assessed as increase in total sleep time at 0.25 mg/kg administered orally through diet measured for 12 hrs by EEG analysis; format: functional; settings: route oral
# Felis catus [29] = assay: Hypnotic activity in cat assessed as increase in non-REM sleep time at 0.5 mg/kg administered orally through diet measured for 12 hrs by EEG analysis; format: functional; settings: route oral
# Felis catus [30] = assay: Hypnotic activity in cat assessed as increase in non-REM sleep time at 0.025 mg/kg administered orally through diet measured for 12 hrs by EEG analysis; format: functional; settings: route oral
# Felis catus [31] = assay: Hypnotic activity in cat assessed as increase in non-REM sleep time at 0.1 mg/kg administered orally through diet measured for 12 hrs by EEG analysis; format: functional; settings: route oral
# Felis catus [32] = assay: Hypnotic activity in cat assessed as increase in non-REM sleep time at 0.25 mg/kg administered orally through diet measured for 12 hrs by EEG analysis; format: functional; settings: route oral
# Rattus norvegicus [33] = assay: Antisecretory activity in Sprague-Dawley rat assessed as decrease in volume at 50 mg/kg, po administered 30 mins prior to pylorus ligation measured after 4 hrs relative to control; format: functional; design: scale not given: the % may be the effect or the level left
# Rattus norvegicus [34] = assay: Antisecretory activity in Sprague-Dawley rat assessed as decrease in acidity at 50 mg/kg, po administered 30 mins prior to pylorus ligation measured after 4 hrs relative to control; format: functional; design: scale not given: the % may be the effect or the level left
# Rattus norvegicus [35] = assay: Antianxiety activity in Long-Evans rat assessed as reduction in motor activity at 1 mg/kg, po after 2 hrs relative to vehicle-treated control; format: functional; design: scale not given: the % may be the effect or the level left
# Mus musculus [36] = assay: Antianxiety activity in albino BALB/cJ mouse assessed as reduction in footshock-induced fighting behavior at 10 mg/kg, po after 30 to 90 mins; format: functional; design: scale not given: the % may be the effect or the level left
# Mus musculus [37] = assay: Antianxiety activity in albino BALB/cJ mouse assessed as reduction in footshock-induced fighting behavior at 1 mg/kg, po after 30 to 90 mins; format: functional; design: scale not given: the % may be the effect or the level left
# Rattus norvegicus [38] = assay: Antianxiety activity in Long-Evans rat assessed as reduction in motor activity at 0.5 mg/kg, po after 2 hrs relative to vehicle-treated control; format: functional; design: scale not given: the % may be the effect or the level left
# Canis familiaris = assay: Antianxiety activity in po dosed dog assessed as ataxia administered as single dose measured up to 24 hrs; format: functional; settings: Canis lupus familiaris, read-out: MED
# Rattus norvegicus [39] = assay: Antipsychotic activity in rat assessed as reduction of methamphetamine-induced hyperactivity at 5 mg/kg, po administered prior to methamphetamine challenge relative to vehicle-treated control; format: functional; design: scale not given: the % may be the effect or the level left
# Rattus norvegicus [40] = assay: Antihypertensive activity in spontaneously hypertensive rat model assessed as reduction in blood pressure at 30 mg/kg, po after 3 hrs; format: functional; design: scale not given: the % may be the effect or the level left
# Rattus norvegicus [41] = assay: Antihypertensive activity in spontaneously hypertensive rat model assessed as reduction in blood pressure at 30 mg/kg, po after 24 hrs; format: functional; design: scale not given: the % may be the effect or the level left
# Mus musculus [42] = assay: Analgesic activity in mouse assessed as inhibition of acetic acid-induced writhing at 10 mg/kg, po administered 30 mins prior to acetic acid challenge measured after 5 mins for 20 mins; format: functional
# Rattus norvegicus [43] = assay: Increase in motor activity in Long-Evans rat at 10 mg/kg, po after 2 hrs relative to vehicle-treated control; format: functional
# Rattus norvegicus [44] = assay: Increase in acid output in Sprague-Dawley rat at 50 mg/kg, po administered 30 mins prior to pylorus ligation measured after 4 hrs relative to control; format: functional
# Rattus norvegicus [45] = assay: Antisecretory activity in Sprague-Dawley rat assessed as decrease in pepsin concentration at 50 mg/kg, po administered 30 mins prior to pylorus ligation measured after 4 hrs relative to control; format: functional; design: scale not given: the % may be the effect or the level left
# Rattus norvegicus [46] = assay: Increase in pepsin output in Sprague-Dawley rat at 50 mg/kg, po administered 30 mins prior to pylorus ligation measured after 4 hrs relative to control; format: functional
# Rattus norvegicus [47] = assay: Increase in methamphetamine-induced hyperactivity in rat at 5 mg/kg, po administered prior to methamphetamine challenge relative to vehicle-treated control; format: functional
# Rattus norvegicus [48] = assay: Increase in volume in Sprague-Dawley rat at 50 mg/kg, po administered 30 mins prior to pylorus ligation measured after 4 hrs relative to control; format: functional
# Mus musculus [49] = assay: Analgesic activity in mouse assessed as inhibition of acetic acid-induced writhing at 100 mg/kg, po administered 30 mins prior to acetic acid challenge measured after 5 mins for 20 mins; format: functional
# Rattus norvegicus [50] = assay: Increase in motor activity in Long-Evans rat at 5 mg/kg, po after 2 hrs relative to vehicle-treated control; format: functional
smiles,measurement,setting,value
CC(C)=CCN1CC[C@]2(C)c3cc(O)ccc3C[C@H]1[C@H]2C [(+)-PENTAZOCINE],inhibition in vivo at 0.5 mg/kg,Rattus norvegicus [1],0%
same,ED50,Mus musculus [2],37.6 mg/kg
same,ED50,Rattus norvegicus [3],60 mg/kg
same,Activity,Rattus norvegicus [4],30%
same,Activity,Rattus norvegicus [5],64%
C#CCN1CCC2=C(C1)c1c(O)cc(C(C)C(C)CCCCC)cc1OC2(C)C (centres undefined),UI,Rattus norvegicus [6],0.3
same,UI,Rattus norvegicus [7],0.5
same,inhibition in vivo at 0.25 mg/kg,Rattus norvegicus [8],20%
same,Activity,Rattus norvegicus [9],49.8%
same,Activity,Rattus norvegicus [10],41.9%
same,inhibition in vivo at 0.5 mg/kg,Rattus norvegicus [1],63%
same,inhibition in vivo at 1 mg/kg,Rattus norvegicus [11],100%
same,UI,Rattus norvegicus [12],1.3
same,Activity,Rattus norvegicus [13],inactive
same,UI,Rattus norvegicus [14],4.2
same,LD50,[15],≥ 1000 mg/kg
same,UI,Rattus norvegicus [16],1.6
same,UI,Rattus norvegicus [17],1.8
same,Activity,Rattus norvegicus [18],74%
same,minimal effective dose,Mus musculus [19],2 mg/kg
same,Activity,Rattus norvegicus [20],23%
same,Activity,Rattus norvegicus [21],27%
same,Activity,Rattus norvegicus [22],7%
same,Activity,Rattus norvegicus [23],4%
same,Time,Felis catus [24],39 min
same,Time,Felis catus [25],44 min
same,Time,Felis catus [26],-12 min
same,Time,Felis catus [27],100 min
same,Time,Felis catus [28],56 min
same,Time,Felis catus [29],28 min
same,Time,Felis catus [30],25 min
same,Time,Felis catus [31],62 min
same,Time,Felis catus [32],21 min
same,Activity,Rattus norvegicus [33],39.3%
same,Activity,Rattus norvegicus [34],23.5%
same,ED50,Mus musculus [2],4.3 mg/kg
same,Activity,Rattus norvegicus [35],71%
same,Activity,Mus musculus [36],62%
same,Activity,Mus musculus [37],42%
same,Activity,Rattus norvegicus [4],75%
same,Activity,Rattus norvegicus [38],35%
same,minimal effective dose,Canis familiaris,1 mg/kg
same,Activity,Rattus norvegicus [39],52%
C#CCN1CCC2=C(C1)c1c(O)cc(C(C)CCc3ccc(F)cc3)cc1OC2(C)C (centres undefined),LD50,[15],≥ 1000 mg/kg
same,Activity,Rattus norvegicus [18],0%
same,Activity,Rattus norvegicus [40],4%
same,Activity,Rattus norvegicus [41],13%
same,inhibition in vivo at 10 mg/kg,Mus musculus [42],10%
same,Activity,Mus musculus [36],0%
same,Activity,Rattus norvegicus [43],44%
C#CCN1CCC2=C(C1)c1c(O)cc(CCCCC)cc1OC2(C)C,Activity,Rattus norvegicus [44],6.1%
same,Activity,Rattus norvegicus [45],8.3%
same,Activity,Rattus norvegicus [46],18.3%
same,LD50,[15],≥ 1000 mg/kg
same,Activity,Rattus norvegicus [47],47%
same,Activity,Rattus norvegicus [40],0%
same,Activity,Rattus norvegicus [41],9%
same,Time,Felis catus [25],28 min
same,Time,Felis catus [29],12 min
same,Activity,Rattus norvegicus [48],24.6%
same,Activity,Rattus norvegicus [34],14.8%
same,inhibition in vivo at 100 mg/kg,Mus musculus [49],19%
same,Activity,Mus musculus [36],6%
same,Activity,Rattus norvegicus [50],6%
